pIC50: −log10 of the molar value.
Columns and labels:
[1] = Dissolution in water (description of material); assay type: physicochemical; details: white powder
[2] = Pharmacokinetics of SL-01 and SL-02 in mice, intragastric; assay type: in vivo; details: both sexes, Kunming, mouse, plasma, po, SL-01 100 mg/kg intragastric
Description: (§1) Kunming strain white mice (25+1 g, provided by Experimental Animal Center of Shandong University, half of which were male, half were female).
125 mg of SL-01 or SL-02 were weighed accurately and added into 10 mL volumetric flask. Water (containing 0.1% Tween-80) was added to the mark and mixed uniformly to get the suspensions of SL-01 or SL-02.
100 healthy Kunming mice were taken and divided into two groups randomly. The first group was given SL-01 and the second group was given SL-02. Five mice were settled parallel at each time point. SL-01 and SL-02 were administrated intragastricly with a dosage at 100 mg/kg (equivalent to 0.2 mL per mouse). The mice were fasted but allowed to drink for a 12 h period before administration. Blood samples were drawn from eyebase veniplex at 5 min, 15 min, 30 min, 45 min, 1 h, 2 h, 4 h, 6 h, 8 h, 12 h, 24 h, 48 h after the administration and put into heparin sodium treated centrifuge tubes containing 2.5 μL tetrahydrouridine solution (THU, 10 mg/ml) and centrifuged for 15 min at 4000 r/min. Isopropanol (1 mL) was added into the solution and vortexed for 30 s and kept still for 5 min. 2.5 ml of EtOAc was added and votexed and centrifuged at 4000 rpm for 15 minutes. The supernatant was taken and dried by blowing in nitrogen. The dried sample was redissolved in 200 μL HPLC mobile phase solution. 20 μL sample was loaded to the HPLC. The chromatography and peak area was recorded. The plasma concentrations of SL-01 and SL-02 was calculated. The average concentration of SL-01 and SL-02 was plotted with the time.

[3] = tested on: LOVO: a human colon cancer cell line; experiment: MTT analytical method, LOVO cells; assay type: cell-based; details: 72 h
Text: MTT analytical method was used to test the prodrugs for various tumor cells.
• 1) Cell lines: NCI-H460, A549, LOVO, HT-29, MDA-MB-231, SGC7901, HepG2 or BEL-7402 cell lines. Culture: adherent culturing in D-MEM (Hyclone, Inc.) containing 10% fetal calf serum. The initial cell concentration was about 3×10^5 /mL. The cell was passaged by 1:3 dilution in every 2-3 days. On the day before the test, the cell was passaged by 1:2 dilution, the cell concentration for the test was 5-10×10^5 /mL. • 2) Dissolution and dilution of compounds: according to the weight and molecular weight of the drugs provided, 100-200 μL of DMSO was added. Then normal saline was added to make the final diluted concentration of the drugs be 5 mM (Note that the final concentration of DMSO should not be more than 10%). • 3) D-MEM or RPMI 1640 cell culture medium, Gibco, Inc. • 4) Fetal calf serum Hyclone, Inc. • 5) Cell dissociation buffer, 0.25% Trypsin+0.02% EDTA. • 6) MTT solution, MTT Powder (Sigma) were dissolved in PBS buffer solution to make a solution of 5 mg/mL. The solution was filtered by a 0.22 μm micropore membrane and stored at −20° C. • 7) PBS buffer solution. • 8) 10% acidified SDS, 0.01N HCl. • 9) Centrifuge tubes, haustorial tubes etc. (BD, Inc.); 96-well plates (Costatr, Inc.) Procedures: • 1) Cell inoculation: Cells grown for 24 hours after passage, which cells were in good growth state, were used. The cells were harvested by the routine method. The cell concentration was adjust with a fresh culture solution to 2×10^5/mL (for adherent cells)-3×10^5/mL (for suspension cells). The adherent cells were inoculated at 100 μL/well and then cultivated in an incubator with 5% CO2 at 37° C. for 24 h. Thereafter the used culture solution was removed and 95 μL/well of fresh culture solution was added. The suspension cells were inoculated at 95 μL/well directly. • 2) Drugs treatment: 9 concentration grades were designed for every drug, and every concentration had 3 wells. The control group had 5 wells. The control group was tested simultaneously in each test. The final concentrations of a drug added were […], and 5 μL normal saline was added to the control group. • 3) Cell culture and detection: the cells were cultured in an incubator with 5% CO2 at 37° C. for 72 h after the drug was added, then 10 μL MTT was added to each well and the culture was continued for 4 h. 100 μL of 10% SDS (containing 0.01N HCl) was added to each well. After 24 h, the absorbance (A) of each well was determined by Bio-rad 680 ELISA with the detection wavelength of 570 nm and the reference wavelength of 630 nm. Calculation:
First, the absorbance (A) of each well was averaged (removing any data with big difference). […] A0 was the mean absorbance of the control wells. The effect curve of the drug concentration was drawn using EXCEL software and the drug concentration for 50% cell survival was calculated according to an appropriate computing methods.

[4] = Pharmacokinetics of gemcitabine in mice, intravenous and oral; assay type: in vivo; details: both sexes, Kunming, mouse, plasma, 50 mg/kg; for MRT last: read-out: MRT0-t
Description: as §1
The solution was filtered and sterilized using a 0.22 μm microfiltration membrane.
120 healthy Kunming mice were taken and divided into two groups randomly. […] The second group was given gemcitabine by intravenous injection in a tail vein. Five mice were settled parallel at each time point. The dosage was 50 mg/kg (equivalent to 0.2 mL per mouse). The mice were fasted but allowed to drink for a 12 h period before administration. Blood samples were drawn from eyebase veniplex at 5 min, 15 min, 30 min, 45 min, 1 h, 2 h, 4 h, 6 h, 8 h, 12 h, 24 h, 48 h after the administration and put into hepain sodium treated centrifuge tubes containing 2.5 μL tetrahydrouridine solution (THU, 10 mg/ml) and centrifuged for 15 min at 4000 r/min. Isopropanol (1 mL) was added into the solution and vortexed for 30 s and kept still for 5 min. 2.5 ml of EtOAc was added and votexed and centrifuged at 4000 rpm for 15 minutes. The supernatant was taken and dried by blowing in nitrogen. The dried sample was redissolved in 200 μL HPLC mobile phase solution. 20 μL sample was loaded to the HPLC. The chromatography and peak area were recorded.

Structure (SMILES)	solubility in water, in words [1]	AUC(0-t) ([2]; analyte SL-01, read-out: AUC0-t, SL-01 Administration Group)	Cmax ([2]; analyte SL-01, read-out: Cmax, SL-01 Administration Group)	MRT last ([2]; analyte SL-01, read-out: MRT0-t, SL-01 Administration Group)	half-life ([2]; analyte SL-01, read-out: T1/2, SL-01 Administration Group (converted))	Tmax ([2]; analyte SL-01, read-out: Tmax, SL-01 Administration Group)	pIC50 [3]	AUC(0-t) ([4]; iv)	Cmax ([4]; iv)	Tmax ([4]; iv)	half-life ([4]; iv)	MRT last ([4]; iv)	bioavailability ([4]; oral, AUCoral/AUCiv, mice, read-out: Absolute bioavailability)	AUC(0-t) ([4]; po)	Cmax ([4]; po)	Tmax ([4]; po)	half-life ([4]; po)	MRT last ([4]; po)
CCCCCCCCCCCCOC(=O)c1nccnc1C(=O)Nc1ccn([C@@H]2O[C@H](CO)[C@@H](O)C2(F)F)c(=O)n1 [Compound 4, Dodecyl-3-((1-((2R,4R,5R)-3,3-difluoro-4-hydroxy-5-(hydroxymethyl)-tetrahydrofuran-2-yl)-2-oxo-1,2-dihydropyrimidin-4-yl)carbamoyl)pyrazine-2-carboxylate]	cannot be dissolved in water well	1810 ng·h/mL	4370 ng/mL	21.6 min	31.1 min	15 min	4.80											
Nc1ccn([C@@H]2O[C@H](CO)[C@@H](O)C2(F)F)c(=O)n1 [Gemcitabine, gemcitabine, reference compound]	can be easily dissolved in water						> 6.00	11300 ng·h/mL	11500 ng/mL	4.98 min	58.2 min	64.2 min	35.6%	4020 ng·h/mL	2600 ng/mL	30 min	49.8 min	76.8 min

— patent US8653048B2 (Sanlugen Pharmatech Ltd., priority 2009, dated 2014)
